In US20260151467A1, “METHOD FOR TREATING CANCER” (THE CHILDREN'S MEDICAL CENTER CORPORATION, priority 2018, published 2026):

Key:
CCRF-CEM cells [1] = assay: Viable cell counts (trypan blue) of CCRF-CEM cells treated with asparaginase and other agents; type: cell-based, human
Procedure: Cells (25,000 per well) were seeded in 100 μl of complete growth medium in 96-well plates and incubated with chemotherapeutic agents or vehicle. T-ALL cells were split every 48 hours in a 1:5 ratio. Briefly, 20 μl of cells were mixed with 80 μl fresh culture medium, supplemented with vehicle or chemotherapeutic drugs at the indicated doses. AML cells were split every 72 hours as described above. Cell viability was assessed by counting viable cells based on trypan blue vital dye staining (Invitrogen), according to the manufacturer's instructions. Chemotherapeutic drugs included: PEG-asparaginase (“oncaspar”, Shire, Lexington, MA), dexamethasone (Sigma-Aldrich), vincristine (Selleckchem, Houston, TX), doxorubicin (Sigma-Aldrich), 6-mercaptopurine (Abcam, Cambridge, UK), CHIR99021 (Selleckchem), bortezomib (Selleckchem), rapamycin (Selleckchem), RAD001 (Selleckchem), AZD2014 (Selleckchem), and Wnt3A (R&D systems, Minneapolis, MN). BRD0705 and […] were synthesized as described^15. Caspase 3/7 activity was assessed using the Caspase Glo 3/7 Assay (Promega, Madison, WI) according to the manufacturer's instructions.

CCRF-CEM cells [2] = assay: Assessment of cell size by flow cytometry (FSC-H), CCRF-CEM; type: cell-based, human; details: asparaginase 10 U/L, 48 hours
Procedure: Assessment of cell size. Cells (400,000 per well) were plated in 1 ml of complete growth medium, containing a final concentration of 10 U/L asparaginase in a 24-well format. After 48 hours of treatment, forward scattering (FSC-H) was assessed by flow cytometry.

[3] = test system: asparaginase-resistant T-ALL patient-derived xenograft; assay: T-ALL patient-derived xenograft in NRG mice, survival; type: in vivo, mouse
Procedure: Mice were exposed to a sub-lethal dose of radiation (4.5 Gy) and subsequently injected with human leukemia cells. All injections were performed by tail vein injection. Blood collections were performed to monitor leukemia onset in mice injected with leukemic cells, which was assessed by staining for human CD45 expression using anti-human CD45-PE-Cy7 (1:400, BD #560915) antibody staining. As soon as leukemia engraftment was confirmed based on ≥5% human leukemia cells in the peripheral blood, treatment of mice was begun. Asparaginase (1,000 U/kg) or PBS were injected by tail vein injection as a single dose on day 1 of drug treatment, and BRD0705 (15 mg/kg) or vehicle were given every 12 hours for 12 days by oral gavage. Vehicle was formulated as previously described.^15 Mice were anesthetized with isoflurane (Patterson Veterinary, Greeley, CO) prior to gavage. After start of treatment, body weight was monitored every third day. To assess bilirubin levels, mandibular blood vein collection was performed, and bilirubin levels were measured in the Boston Children's Hospital clinical laboratory. The primary endpoint of this experiment was survival. Mice were euthanized as soon as they developed weight loss greater than 15% or signs/symptoms of progressing disease. Post-mortem analysis of leukemic burden was performed by extracting bone marrow cells, which were filtered through a […] mesh filter and red blood cells were lysed using the BD Biosciences Red Blood Cell Lysis reagent (BD #555899). Isolated bone marrow cells were stained for assessment of leukemic burden using following antibodies from BD Biosciences: Anti-human CD4-APC-Cy7 (1:100, BD #561839) and anti-human CD8-PerCP-Cy5.5 (1:100, BD #560662).

HCT-15 cells [4] = assay: Chemotherapy response of colon cancer cell lines (trypan blue counts), HCT-15; type: cell-based, human; details: 10 days
Procedure: (§1) Cells (100,000 per well) were seeded in […] of complete growth medium in 12-well plates and incubated with chemotherapeutic agents or vehicle. Cells were split every 48 hours and cell viability was assessed by counting viable cells based on trypan blue vital dye staining (Invitrogen), according to the manufacturer's instructions. Chemotherapeutic drugs included: asparaginase (pegaspargase, Shire, Lexington, MA), CHIR99021 (Selleckchem), recombinant human Wnt3A protein (R&D systems, Minneapolis, MN) and recombinant human R-Spondin 3 protein (R&D systems, Minneapolis, MN). BRD0705 and BRD3731 were synthesized as described (Wagner et al., 2018). Caspase 3/7 activity was assessed using the Caspase Glo 3/7 Assay (Promega, Madison, WI) according to the manufacturer's instructions.

SW-480 cells = assay: Chemotherapy response of colon cancer cell lines (trypan blue counts), SW-480; type: cell-based, human; details: 10 days
Procedure: as §1

Rspo3 fusion organoids = assay: Chemotherapy response in mouse intestinal organoids, Rspo3 fusion; type: cell-based; details: asparaginase 100 U/L, 10 days
Procedure: (§2) For assessment of chemotherapy response in mouse intestinal organoids, Apc-deficient and Rspo3 fusion organoids were cultured in basal organoid medium (medium not containing murine Wnt3A, murine Noggin and human R-spondin1 protein). A full 0.95 cm2 well of organoids was split into new wells, aiming to obtain approximately 25 organoids per well. Organoids were split according to previously published protocols (O'Rourke et al., 2016). Matrigel and basal organoid culture medium were supplemented with vehicle or chemotherapeutic agents, and split every 48 hours. After 10 days in culture, total organoid numbers per wells were counted by light microscopy. Microscopy was performed using an 100× objective on an Axio Imager A1 microscope (Zeiss, Oberkochen, Germany), with images captured using a CV-A10 digital camera (Jai, Yokohama, Japan) and Cytovision software (Leica Biosystems, Wetzlar, Germany).
(§3) Organoids touching the edge of a well were excluded from counting. Images were taken from a representative of three independent experiments and analyzed with ImageJ Software (Schneider et al., 2012).

Apc-deficient organoids = assay: Chemotherapy response in mouse intestinal organoids, Apc-deficient; type: cell-based; details: asparaginase 100 U/L, BRD0705 1 μM or both, 10 days
Procedure: as §2, §3

HCT-15 cells [5] = assay: Assessment of cell size by flow cytometry (FSC-H), HCT-15; type: cell-based, human; details: asparaginase 100 U/L (FIG. 18A)
Procedure: […] After 48 hours of treatment, forward scatter height (FSC-H) was assessed by flow cytometry on a Beckton-Dickinson LSR-II instrument.

Rspo3 fusion tumors = assay: Subcutaneous Rspo3 fusion organoid tumors in nude mice; type: in vivo, mouse; details: single dose of asparaginase
Procedure: (§4) For implantation of APC mutant human CRC PDX, patient tumor material was collected in PBS and kept on wet ice for engraftment within 24 h after resection. Upon arrival, necrotic and supporting tissues were carefully removed using a surgical blade. Approximately 1 mm×1 mm tissue fragments were implanted subcutaneously into the flank region of male nude mice, as described (Bullman et al., 2017). For injection of intestinal organoids (Rspo3; p53; Kras, or Apc; p53; Kras), per mouse one full […] well of organoids was injected subcutaneously.
(§5) As soon as tumors reached a volume of approximately 150 mm3, treatment of mice was begun. For the APC mutant human CRC PDX, a single dose of asparaginase (1,000 U/kg) or PBS was injected by tail vein injection on day 1 of treatment, and BRD0705 (15 mg/kg) or vehicle was given every 12 hours for 21 days by oral gavage. Vehicle was formulated as previously described (Wagner et al., 2018).
(§6) After start of treatment, body weight and tumor size were evaluated every other day. Tumor size was assessed by caliper measurements and the approximate volume of the mass was calculated using the formula (l×w×w)×(π/6), where 1 is the major tumor axis and w is the minor tumor axis.

Apc-deficient tumors = assay: Subcutaneous Apc-deficient organoid tumors in nude mice; type: in vivo, mouse; details: single dose of asparaginase
Procedure: as §4, §5, §6

[6] = Body weight of nude mice injected with organoids; type: in vivo; details: single dose of asparaginase, FIG. 19A
Procedure: as §6

[7] = test system: APC-mutant CRC patient-derived xenograft; assay: APC-mutant human CRC patient-derived xenograft in nude mice; type: in vivo, mouse; details: asparaginase 1000 U/kg×1 dose; BRD0705 every 12 hours×21 days
Procedure: as §4
As soon as tumors reached a volume of approximately 150 mm3, treatment of mice was begun. […] Vehicle was formulated as previously described (Wagner et al., 2018).
as §6

CRC = details: Clarkson 1970; Ohnuma 1970; Wilson 1975; cited from earlier work

asparaginase
toxicity of asparaginase (CCRF-CEM cells [1]; 10 U/L dose): lacked detectable toxicity
asparaginase sensitivity of the cell line (viability) (CCRF-CEM cells [1]; FIG. 5: 100 U/L asparaginase, 48 hours): asparaginase-resistant
cell size (FSC-H) (CCRF-CEM cells [2]): measurable decrease in cell size
difference in survival between vehicle and monotherapy groups (log-rank) ([3]; FIG. 4D, Kaplan-Meier): not significant
efficacy against xenograft (survival) ([3]; asparaginase 1,000 U/kg i.v. single dose, BRD0705 15 mg/kg oral gavage every 12 hours for 12 days): highly resistant
response to asparaginase monotherapy (HCT-15 cells [4]): refractory
response to asparaginase monotherapy (SW-480 cells): refractory
toxicity to organoids (viable organoid count) (Rspo3 fusion organoids): highly toxic
toxicity to organoids (viable organoid count) (Apc-deficient organoids): little activity
cell size (FSC-H) (HCT-15 cells [5]): significantly decreased cell size
therapeutic activity (Rspo3 fusion tumors): significant therapeutic activity
disease progression (tumor volume) (Rspo3 fusion tumors; FIG. 16B): markedly delayed disease progression
tumor regression (Rspo3 fusion tumors; FIG. 16C): induced tumor regression in most treated mice
progression-free survival (Rspo3 fusion tumors; FIG. 16D): prolonged progression-free survival
effect on tumors (Apc-deficient tumors): little effect
weight loss [6]: without inducing appreciable weight loss
activity on tumor growth [7]: no activity
activity in unselected patients with CRC (CRC): little activity
